Measured values taken from PMC2845396 (Clinical cancer research : an official journal of the …, 2009).

Experiments:
Epstein Barr Virus (EBV) = assay: EBV viral load in PBMC by real-time PCR; format: in vivo, human; settings: after 5-AC treatment
DNMT = settings: plasma concentration reached only with 5-AC 75 mg/m^2/d; cited from earlier work
[1] = test system: DNA methyltransferase (DNMT); assay: DNA methyltransferase enzyme activity in paired tumor biopsies; format: in vivo, human; settings: one patient with hepatocellular carcinoma; 5-AC 15 mg/m^2/d for 14 days
advanced solid tumor = settings: 5-AC 20 – 25 mg/m^2 daily for 10 days; cited from earlier work
[2] = Plasma pharmacokinetics of PB and metabolites PA and PG; settings: PB continuous infusion over 24 hours, 400 mg/kg/d, Overall
[3] = test system: acetylated histones H3 and H4; assay: Histone H3 or H4 acetylation in PBMC, summary over patients; format: in vivo, human
[4] = Toxicity in patients, graded by NCI CTC version 2.0; format: in vivo, human
G1/G0 growth arrest = settings: cited from earlier work
[5] = human, in vivo, 400 mg/kg/day
[6] = intravenous administration for 5 days, refractory solid tumors; cited from earlier work

## Nc1ncn([C@@H]2O[C@H](CO)[C@@H](O)[C@H]2O)c(=O)n1 [5-AC, 5-azacytidine]
Epstein Barr Virus (EBV)
  patients with reduced viral load: Three
DNMT
  concentration shown in vitro to cause DNMT inhibition: 5 µM
[1]
  inhibition of DNMT activity: 75% and about 75%
Advanced solid tumor
  duration of stable disease: 4 – 8 months

## O=C(O)Cc1ccccc1 [PA, phenylacetic acid]
[2]; mean (range)
  Tmax: 25.30 (23.83–27.98) h
[2]; mean ± SD
  AUC[INF]: 26680 ± 11236 µM·h
  Cl: 9.5 ± 7.6 L/h
[2]; plasma, mean ± SD
  Cmax: 1400 ± 504 µM

## O=C([O-])CCCc1ccccc1.[Na+] [PB, sodium phenylbutyrate]
[3]; PB infused for just 24 hours, Four of 8 patients
  patients with increased acetylation: 50%
[3]; dose schedule B, PB infused for 7 days, 3 of 5 patients
  patients with increased acetylation: 60%
[4]; human, in vivo
  confusion, G 3 (CTC grade 3), patients: 1
[4]; of 27 patients, PB 400 mg/kg/day, intermittent or continuous 7 day infusion
  patients with neuro-cortical toxicity attributable to PB: 3
G1/G0 growth arrest
  time to G1/G0 growth arrest: ≤ 96 h
[5]
  Vd: 14.0 ± 8.0 L
[6]
  maximum tolerated dose: 410 mg/kg/day
